Test results: patent publication US8871452B2, “Methods for treatment of cardiovascular disease” (The Brigham and Women's Hospital, Inc., priority 2000, dated 2014)
“Also recorded” adds a separate entry of the source. Numbered stars: 1 amine (or outer) side, 2 acyl side, 3 side chain; on linkers, the order of the positions; unused ones are H or OH. Bridge positions count the residues as written; N and C are the ends. Square brackets hold non-standard residues; d marks the D form. Peptide text beside a SMILES is read from it. I, II: the chains in the order shown. Actinocin(9to1) = Cc1c2oc3c(C)ccc(C(=O)[*:1])c3nc-2c(C(=O)[*:2])c(N)c1=O; NMeV = CN[C@H](C(=O)O)C(C)C; Sar = CNCC(=O)O

Assays:
Fit-1 mRNA expression = assay: Northern blot of Fit-1 (T1/ST2) mRNA induction in cultured neonatal rat cardiac myocytes, with or without 8% cyclic mechanical strain; format: cell-based; conditions: for induction of Fit-1 mRNA expression by 8% mechanical strain: FIG. 4, applied during strain, actinomycin D 5 μg/ml (2 and 4 hours), cyclohexamide 10 μg/ml; for strain-induced induction of Fit-1 mRNA expression / Fit-1 mRNA expression in the absence of strain: FIG. 3, H2O2 100 uM, TIRON 10 mN; for strain-induced induction of Fit-1 mRNA expression: 8% mechanical strain; for induction of Fit-1 mRNA expression in the absence of mechanical strain: FIG. 2, 3 hours, Ang II 50 nM; for induction of Fit-1 mRNA expression in the absence of mechanical strain / rank order potency for the induction of Fit-1 mRNA expression / induction of Fit-1 mRNA expression, agent alone: IL-1β 10 ng/ml; for induction of Fit-1 mRNA expression in the absence of mechanical strain / rank order potency for the induction of T1/ST2 mRNA expression: PMA 200 nM; for rank order potency for the induction of Fit-1 mRNA expression: 8% strain; for rank order potency for the induction of Fit-1 mRNA expression / induction of Fit-1 mRNA expression, agent alone: PMA 100 ng/ml; for induction of Fit-1 mRNA expression, agent alone: no strain; for rank order potency for the induction of T1/ST2 mRNA expression: strain 8%
Excerpt: The approach to mechanical stimulation used an apparatus that has multiple platens that contact the underside of silicone elastomer membranes to apply a spatially isotropic biaxial strain profile to the membrane (Schaffer J L, et al., J Orthop Res, 1993, 12:709-719; and U.S. Provisional Patent Application Ser. No. 60/144,134 filed on Jul. 16, 1999 entitled “AN APPARATUS FOR STUDYING MYOCARDIAL MECHANICAL OVERLOAD HYPERTROPHY AND USES THREFOR, by Richard T. Lee, and bearing and express mail no. EL110243781US). Six individual 78 mm membranes can be stretched at once with varying amplitudes of strain by controlling displacement of each platen with a stepper motor. Measured Green strains are accurate to ˜±0.25% at strains from 1-14% (Cheng G C, et al., Circ Res, 1997, 80:28-36; Brown T D, J Biomechanics, 2000, 33:3-14). Throughout this study, 8% biaxial strain was used.
Neonatal rat ventricular myocytes (NRVM) from 1-day old Sprague-Dawley rats were isolated by previously described methods (Springhorn J P, and Claycomb W C., Biochem J, 1989; 258:73-78; Arstall M A, et al., J Mol Cell Cardiol, 1998, 30:1019-25). NRVM were plated on the coated membrane dish at a density of 2,000,000 cells/dish in DMEM containing 7% FCS and incubated 24 h. Approximate cell confluence was 85-90%. NRVM were then made quiescent by washing with 10 ml of Hanks' balanced salt solution (HBSS, 138 mM NaCl, 5.3 mM KCl, 4.0 mM NaHCO3, 1.3 mM CaCl2, 0.5 mM MgCl2, 0.4 mM MgSO4, 0.4 mM KH2PO4, 0.3 mM Na2HPO4, 5.6 mM glucose; Life Technologies, Inc., Rockville, Md.) twice and incubating with 26 ml of DMEM containing 0.2% FCS for 48-72 hours.
The cDNA clones for differentially expressed genes were obtained by PCR using the GenBank sequences. Each clone was sequenced from both 5′ and 3′ ends to confirm identity. Positive elements in the DNA microarray were confirmed by Northern blot hybridization analysis in at least three independent experiments using three different sources of NRVMs. Total RNA was isolated by the guanidium thiocyanate and phenol chloroform method (Chomcyznski, et al., Anal. Biochem., 1987, 162:156-159). For Northern blotting, 15 μg RNA was loaded on a 1.0% agarose-formaldehyde gel (2.0 mol/l), transferred to a nylon membrane (Amersham Pharmacia Biotech AB, Piscataway, N.J.), and UV cross-linked with a UV Stratalinker (Stratagene, Inc., La Jolla, Calif.). Each probe was hybridized with ExpressHyb solution (Clontech Labs., Inc., Palo Alto, Calif.) at 68° C. for 1 hour. The membrane was washed with 2×SSC, 0.05% SDS solution for 30 to 40 minutes and three times at room temperature and 0.1×SSC, 0.1% SDS solution with continuous shaking at 50° C. for 40 minutes. The membrane was exposed to film at −80° C., and radiographs were scanned and analyzed with Optimas 5.0 software (Optimas Co./Media Cybernetics, Silver Springs, Md.). Densitometric units were normalized to the ethidium-stained 28S ribosomal subunit on the membrane.
T1/ST2 mRNA is induced by mechanical strain in cultured neonatal cardiac myocytes. Neonatal rat ventricular myocytes were isolated by collagenase digestion, plated on fibronectin-coated silicone membrane dishes at a density of 3.5 million cells/dish in 13 ml media as previously described (Yamamoto K, et al. J Biol Chem. 1999; 274:21840-21846). This technique yields cultures with ≧95% myocytes. Mechanical deformation was applied using a device that provides uniform biaxial cyclic strain as previously described (Yamamoto K, et al. J Biol Chem. 1999; 274:21840-21846). RNA was extracted (Qiagen) and Northern blotting was performed using as a probe a ^32P-labelled 600 bp PCR fragment specific to rat T1/ST2. Maximal induction occurs at 3 hours, is sustained for 9 hours and declines by 15 hours.

T1/ST2 mRNA = T1/ST2 mRNA induction in human adult vascular smooth muscle cells; format: cell-based
[1] = FIG. 9, interleukin-1 10 ng/ml, 1 and 3 hours

## C[C@@H]1C[C@@H]([C@H](O)CC2CC(=O)NC(=O)C2)C(=O)[C@@H](C)C1 [cyclohexamide]
Fit-1 mRNA expression
  induction of Fit-1 mRNA expression by 8% mechanical strain: blocked

## O=S(=O)(O)c1cc(O)c(O)c(S(=O)(=O)O)c1 [TIRON]
Fit-1 mRNA expression
  strain-induced induction of Fit-1 mRNA expression: slightly attenuated
  Fit-1 mRNA expression in the absence of strain: slightly attenuated

## CCCCCCCCCCCCCC(=O)O[C@@H]1[C@@H](C)[C@@]2(O)[C@@H](C=C(CO)C[C@]3(O)C(=O)C(C)=C[C@@H]23)[C@@H]2C(C)(C)[C@]12OC(C)=O [PMA]
T1/ST2 mRNA
  induction of T1/ST2 mRNA: not
Fit-1 mRNA expression
  induction of Fit-1 mRNA expression in the absence of mechanical strain: associated with an induction
Fit-1 mRNA expression; FIG. 5
  rank order potency for the induction of Fit-1 mRNA expression: PMA>strain>IL-1β
  induction of Fit-1 mRNA expression, agent alone: strongest induction
Fit-1 mRNA expression; [1]
  rank order potency for the induction of T1/ST2 mRNA expression: PMA>strain>interleukin-1β; also recorded: PMA>strain>IL-1

## tumor necrosis factor
T1/ST2 mRNA
  induction of T1/ST2 mRNA: not

## IL-1β: interleukin-1β, cytokine
T1/ST2 mRNA
  induction of T1/ST2 mRNA: induced
Fit-1 mRNA expression
  induction of T1/ST2 RNA, agent alone: induce
  induction of Fit-1 mRNA expression in the absence of mechanical strain: associated with an induction
Fit-1 mRNA expression; FIG. 5, 8% strain plus IL-1β 10 ng/ml
  induction of Fit-1 by mechanical strain in the presence of IL-1β: not further increased
Fit-1 mRNA expression; FIG. 5
  rank order potency for the induction of Fit-1 mRNA expression: PMA>strain>IL-1β
  induction of Fit-1 mRNA expression, agent alone: induced
Fit-1 mRNA expression; FIG. 9, 8% strain plus interleukin-1 10 ng/ml, 1 and 3 hours
  induction of T1/ST2 by mechanical strain in the presence of interleukin-1β: not further increased
Fit-1 mRNA expression; [1]
  rank order potency for the induction of T1/ST2 mRNA expression: PMA>strain>interleukin-1β
Fit-1 mRNA expression; FIG. 9, interleukin-1 10 ng/ml, 1 and 3 hours, listed as IL-1
  rank order potency for the induction of T1/ST2 mRNA expression: PMA>strain>IL-1
Fit-1 mRNA expression; FIG. 10, interleukin-1 10 ng/ml, 4 hours
  induction of T1/ST2 mRNA in the presence of infection with control adenovirus: induced

## OO [H2O2, hydrogen peroxide]
Fit-1 mRNA expression
  strain-induced induction of Fit-1 mRNA expression: blocks
  Fit-1 mRNA expression in the absence of strain: does not induce

## Cc1c2oc3c(C)ccc(C(=O)N[C@@H]4C(=O)N[C@H](C(C)C)C(=O)N5CCC[C@H]5C(=O)N(C)CC(=O)N(C)[C@@H](C(C)C)C(=O)O[C@@H]4C)c3nc-2c(C(=O)N[C@@H]2C(=O)N[C@H](C(C)C)C(=O)N3CCC[C@H]3C(=O)N(C)CC(=O)N(C)[C@@H](C(C)C)C(=O)O[C@@H]2C)c(N)c1=O [Actinomycin D, actinomycin D] (I: T[dV]P[Sar][NMeV] / II: T[dV]P[Sar][NMeV]; ester I:1-I:C, II:1-II:C; linker I:N-II:N via Actinocin(9to1))
Fit-1 mRNA expression
  induction of Fit-1 mRNA expression by 8% mechanical strain: blocked

## angiotensin II (DRVYIHPF; Angiotensin-2; UniProt P01019 25-32, looked up)
Fit-1 mRNA expression
  induction of Fit-1 mRNA expression in the absence of mechanical strain: did not induce
